Format in all cases: cell-based
Assay [1] has as its system A549 side population (SP) stem-like cells. Put plainly: Sphere formation assay with stem-like side population NSCLC cells. Conditions: A549 (KRAS mutation), 0.5-5.0 μM, Day 10. On the procedure: (§1) In order to investigate the role of HDAC11 in the self-renewal of stem-like cancer cells, sphere formation assays were conducted with NSCLC side population (SP) stem-like cells. A549 and NCI-H1650 cells were obtained from the ATCC. Asynchronously growing A549 or NCI-H1650 cells were washed once with phosphate buffered saline (PBS) and harvested using Accutase solution (Sigma Aldrich) and resuspended in DMEM-F12K medium (Gibo, Life Technologies) with 2% fetal bovine serum (FBS) at 1×10^6 cells/ml density. The cells were incubated with 4 μg/ml of Hoechst 33342 dye (Life Technologies) for 90 min at 37° C. in the presence or absence of 1 μM Fumitremorgin C (Sigma-Aldrich) which was used as a control sample to set the gate during sorting. The Hoechst stained cells were sorted using the BD FACSAria cell sorter. The sorted SP cells were plated in 96-well ultra-low adherent plate (Corning Inc) at the cell density of 1000 cells/100 μl/well in stem cell selective medium (DMEM:F12K supplemented with N2 supplement, 10 ng/mL epidermal growth factor (EGF) and 10 ng/ml basic fibroblast growth factor (bFGF) (Sigma-Aldrich) at 37° C. for 7-10 days. The spheres were observed and acquired using EVOS FL microscope system (Life Technologies Inc., USA). The numbers of spheres greater than or equal to 50 μm were counted. To study the effect of the HDAC11 inhibitors, the appropriate concentrations of the compounds were added to the wells on Day 0 and Day 5 and the image acquisition and analysis of the spheres were performed on Day 10. The sphere formation assays were performed twice with triplicates of each treatment in every assay.

Assay [2] concerns NCI-H1650 side population (SP) stem-like cells. Described as above. The conditions noted are these: H1650 (EGFR mutation), 0.5-5.0 μM, Day 10. The protocol: as §1
For assay [3], the system named is A549 cells. Nature of the assay: QRT-PCR assay for stem cell transcription factors. The conditions noted are these: 72 hours. On the procedure: (§2) Given the effects of HDAC11 inhibition on stem-like side population cells, the effects on the expression of stem cell transcription factors was determined using QRT-PCR. A549 or H1650 cells were plated in 60 mm cell culture dishes (120,000 cells). The next day, HDAC11 inhibitors were added at various concentrations and incubated for 72 hours. For the siRNA experiments, A549 cells were plated in 60 mm cell culture dishes (120,000 cells per dish). The siRNAs (Santa Cruz Biotechnologies sc-106896 or ThermoFisher Scientific Cat#4392420) were transfected at a concentration of 100 and 150 pmoles into cells using Oligofectamine reagent (Invitrogen) as per manufacturer's protocol. A non-targeting siRNA (Ambion AM4635) was used as a control for all the transfection experiments. The cells were harvested after 72 hours post transfection. At the end of the treatments, cells were scraped, lysed and total RNA was isolated by RNeasy miniprep kit from Qiagen following the manufacturer's protocol (RNeasy mini kit Cat No. 74104). 1 μg of RNA was converted into cDNA using iScript cDNA synthesis kit (BioRad) in a 20 μl total reaction volume. Levels of mRNA were further analyzed using quantitative real time-PCR (qRT-PCR) that was performed in CFX96 Real time system using BioRad iQ SYBR Green supermix. The reaction was set with 5 μl of SYBR Green, 1 μl of 1 μM Forward primer, 1 μl of 1 μM Reverse primer, 0.5 μl of cDNA and 4.5 μl of water in a total 12 μl reaction. Data was normalized using GAPDH as an internal control and fold change was calculated by 2^−Delta-DeltaCt method. First the Delta-Ct was calculated (Delta-Ct=Ct Gene−Ct GAPDH). Next Delta-Delta-Ct was calculated (Delta-Delta-Ct=Delta-Ct treatment−Delta-Ct control). Finally fold change was calculated by 2^−Delta-DeltaCt.

In assay [4] the test system is H1650 cells. Put plainly: QRT-PCR assay for stem cell transcription factors. Conditions: 72 hours. On the procedure: as §2
Assay [5] concerns H1650 cells co-cultured with primary CAFs from human lung cancer. Put plainly: Co-culture assay with cancer cells and cancer associated fibroblasts. On the procedure: The effects of selective HDAC11 inhibition on cancer cells and cancer associated fibroblasts (CAFs) were determined in a co-culture assay. The cells were first trypsinized and collected in serum containing medium and were further incubated in same media at 37° C. for 15-20 min for recovery. The cells were resuspended in serum free media at 1×10^6 cells/ml density and stained with 10 uM of cytotracker green (Cancer associated fibroblasts) or cytotracker red dye (H1650 cells) (Life Technologies Inc) at 37° C. for 90 min. The stained cells were washed twice with serum free medium to remove excess dye at 1500 rpm for 5 min. The cytotracker green stained CAFs were mixed with cytotracker red stained H1650 cells in 1:1 ratio and grown in 96-well tissue culture plate overnight. The HDAC11 inhibitors were then added to the mixed adhered cells (CAFs+H1650) at appropriate concentrations. The images were taken on Day 0 and after every 24 hours using EVOS FL microscope system and EVOS software (Life Technologies Inc).

The test system of assay [6] is A549 cells. Nature of the assay: Cell proliferation assay with combination treatment (MTT). Conditions: A549, combination with GDC-0449 (Vismodegib) or BMS-833923, 96 hours. On the procedure: (§3) Selective HDAC11 inhibitors may be useful in combination with other targeted agents, including Jak2 inhibitors and Smoothened inhibitors. The effect of combination with the Smoothened inhibitors GDC-0449 (Vismodegib) and BMS-833923 was tested in lung cancer cell lines. A549 and NCI-H2170 cells were obtained from the ATCC. H2170 is a squamous carcinoma cell line. Cell viability was assessed using MTT reagent (Thiazolyl Blue Tetrazolium Bromide) (Sigma-Aldrich). The cells were grown in 96-well plates at a density of 3000-5000 cells/well in triplicates. The HDAC11 inhibitors were added to the adherent cells at different concentrations and treatment was carried out for 96 hours. After treatments, the cells were incubated with the 1 mg/mL MTT reagent at 37° C. for 1 hour. The reaction was terminated with DMSO that solubilizes the formazan product formed. Absorbance at 590 nm was recorded in a plate reader.

The test system of assay [7] is NCI-H2170 cells. Described as above. The conditions noted are these: H2170, combination with GDC-0449 (Vismodegib) or BMS-833923, 96 hours. The protocol: as §3

Turning to `O=C(NO)c1cccc2c1C[C@]1(CCN(Cc3ccc(Cl)c(C(F)(F)F)c3)C1=O)C2` [HDTK054, (S)-1′-(4-chloro-3-(trifluoromethyl)benzyl)-N-hydroxy-2′-oxo-1,3-dihydrospiro[indene-2,3′-pyrrolidine]-4-carboxamide], the “growth of stem-like cancer cells (sphere formation)” value in assay [1] and in assay [2] was “prevented growth” throughout. Besides, the “expression of Gli1 (mRNA)” value in assay [3] and in assay [4] was “decreased expression” each time. Also, the “expression of Sox2 (mRNA)” value in assay [3] and in assay [4] was “decreased expression” in each case. In addition, the “expression of Yap1 (mRNA)” value in assay [3] and in assay [4] was “decreased expression” throughout. The “growth of H1650 cells co-cultured with primary CAFs” value in assay [5] (1:1 co-culture) was “inhibit the growth”. For the same compound, the “effects on CAFs” value in assay [5] (1:1 co-culture with H1650 cells) was “minimal effects”. For the same compound, the “cell viability, combination with Smoothened inhibitors” value in assay [6] and in assay [7] was “decreased cell viability” throughout.
As for `O=C(NO)c1cccc(Nc2nc3cc(Cl)c(Cl)cc3o2)c1` [HDTK010, 3-((5,6-dichlorobenzo[d]oxazol-2-yl)amino)-N-hydroxybenzamide], the “growth of stem-like cancer cells (sphere formation)” value in assay [1] and in assay [2] was “prevented growth” each time. The “expression of Gli1 (mRNA)” value in assay [3] and in assay [4] was “decreased expression” in each case. Also, the “expression of Sox2 (mRNA)” value in assay [3] and in assay [4] was “decreased expression” throughout. Moreover, the “expression of Yap1 (mRNA)” value in assay [3] and in assay [4] was “decreased expression” in each case. For the same compound, the “cell viability, combination with Smoothened inhibitors” value in assay [6] and in assay [7] was “decreased cell viability” in each case.

Source of the values: patent US10538496B2, “Methods using HDAC11 inhibitors” (FORMA Therapeutics, Inc., priority 2016, dated 2020).
